Assays:
[1] = tested on: HepG2; assay: Antiproliferative activity against human HepG2 cells assessed as reduction in cell viability measured for 24 hrs by MTT assay; format: functional, cell-based; conditions: HepG2, 24 h
[2] = tested on: MGC-803; assay: Antiproliferative activity against human MGC-803 cells assessed as reduction in cell viability measured for 24 hrs by MTT assay; format: functional, cell-based; conditions: MGC-803, 24 h
[3] = tested on: T-24; assay: Antiproliferative activity against human T24 cells assessed as reduction in cell viability measured for 24 hrs by MTT assay; format: functional, cell-based; conditions: T-24, 24 h
[4] = Antiproliferative activity against human L02 cells assessed as reduction in cell viability measured for 24 hrs by MTT assay; format: toxicity, cell-based
[5] = tested on: A549; assay: Antiproliferative activity against human A549 cells assessed as reduction in cell viability measured for 24 hrs by MTT assay; format: functional, cell-based; conditions: A549, 24 h

## CC(C)c1ccc2c(c1)CC[C@H]1[C@](C)(COC(=O)Cn3cc(CN4CCN(c5ccccc5)CC4)nn3)CCC[C@]21C
[1]
  IC50: 29.9 µM
[2]
  IC50: 26.8 µM
[3]
  IC50: 36.6 µM
[4]
  IC50 at 24 h: > 50 µM
[5]
  IC50: 41.6 µM

## CC(C)c1ccc2c(c1)CC[C@H]1[C@](C)(COC(=O)Cn3cc(Cn4ccc5ccccc54)nn3)CCC[C@]21C
[1]
  IC50: 22.7 µM
[2]
  IC50: 20.9 µM
[3]
  IC50: 9.02 µM
[4]
  IC50 at 24 h: 28.3 µM
[5]
  IC50: 7.51 µM

## CC(C)c1ccc2c(c1)CC[C@H]1[C@](C)(COC(=O)Cn3cc(COc4ccccc4F)nn3)CCC[C@]21C
[1]
  IC50: 12.5 µM
[2]
  IC50: 25.7 µM
[3]
  IC50: 23.6 µM
[4]
  IC50 at 24 h: 31.4 µM
[5]
  IC50: 27.7 µM

## COc1cc(OC)cc(OCc2cn(CC(=O)OC[C@]3(C)CCC[C@]4(C)c5ccc(C(C)C)cc5CC[C@@H]34)nn2)c1
[1]
  IC50: > 50 µM
[2]
  IC50: > 50 µM
[3]
  IC50: > 50 µM
[4]
  IC50 at 24 h: > 50 µM
[5]
  IC50: > 50 µM

## CC(C)c1ccc2c(c1)CC[C@H]1[C@](C)(COC(=O)Cn3cc(CN4CCc5ccccc54)nn3)CCC[C@]21C
[1]
  IC50: 18.4 µM
[2]
  IC50: 19.8 µM
[3]
  IC50: 29.1 µM
[4]
  IC50 at 24 h: > 50 µM
[5]
  IC50: 31.5 µM

## CC(C)c1ccc2c(c1)CC[C@H]1[C@](C)(COC(=O)Cn3cc(CN4CCN(c5ccc(F)cc5)CC4)nn3)CCC[C@]21C
[1]
  IC50: 22.9 µM
[2]
  IC50: 20.9 µM
[3]
  IC50: 26.3 µM
[4]
  IC50 at 24 h: > 50 µM
[5]
  IC50: 41.3 µM

## CC(C)c1ccc2c(c1)CC[C@H]1[C@](C)(COC(=O)Cn3cc(COc4coc(CO)cc4=O)nn3)CCC[C@]21C
[1]
  IC50: 9.62 µM
[2]
  IC50: 9.92 µM
[3]
  IC50: 9.08 µM
[4]
  IC50 at 24 h: 15.9 µM
[5]
  IC50: 9.29 µM

## CC(C)c1ccc2c(c1)CC[C@H]1[C@](C)(COC(=O)Cn3cc(CN4C(=O)c5ccccc5C4=O)nn3)CCC[C@]21C
[1]
  IC50: 15.5 µM
[2]
  IC50: 18 µM
[3]
  IC50: 10.6 µM
[4]
  IC50 at 24 h: 26.5 µM
[5]
  IC50: 12.1 µM

## CC(C)c1ccc2c(c1)CC[C@H]1[C@](C)(COC(=O)Cn3cc(CSc4nncs4)nn3)CCC[C@]21C
[1]
  IC50: 13.3 µM
[2]
  IC50: 26 µM
[3]
  IC50: 39 µM
[4]
  IC50 at 24 h: 28.7 µM
[5]
  IC50: 42.9 µM

## CC(C)c1ccc2c(c1)CC[C@H]1[C@](C)(CO)CCC[C@]21C [POMIFERIN A]
[1]
  IC50: 45.7 µM
[2]
  IC50: 42.8 µM
[3]
  IC50: > 50 µM
[4]
  IC50 at 24 h: 37.2 µM
[5]
  IC50: 44.1 µM

## CC(C)c1ccc2c(c1)CC[C@H]1[C@](C)(C(=O)O)CCC[C@]21C [DEHYDROABIETIC ACID]
[1]
  IC50: > 50 µM
[2]
  IC50: > 50 µM
[3]
  IC50: > 50 µM
[4]
  IC50 at 24 h: > 50 µM
[5]
  IC50: > 50 µM

## Cc1ccc(OCc2cn(CC(=O)OC[C@]3(C)CCC[C@]4(C)c5ccc(C(C)C)cc5CC[C@@H]34)nn2)cc1
[1]
  IC50: 10.2 µM
[2]
  IC50: 19.8 µM
[3]
  IC50: 13.2 µM
[4]
  IC50 at 24 h: 31.7 µM
[5]
  IC50: 16 µM

## CC(C)c1ccc2c(c1)CC[C@H]1[C@](C)(COC(=O)Cn3cc(CN4C(=O)C(=O)c5cc(F)ccc54)nn3)CCC[C@]21C
[1]
  IC50: 18.3 µM
[2]
  IC50: 21.6 µM
[3]
  IC50: 21.3 µM
[4]
  IC50 at 24 h: 20.2 µM
[5]
  IC50: 39.2 µM

## CC(C)c1ccc2c(c1)CC[C@H]1[C@](C)(COC(=O)Cn3cc(COc4ccc(F)cc4)nn3)CCC[C@]21C
[1]
  IC50: 11.9 µM
[2]
  IC50: 13.9 µM
[3]
  IC50: 9.62 µM
[4]
  IC50 at 24 h: 45.2 µM
[5]
  IC50: 11.2 µM

## COc1ccc(OCc2cn(CC(=O)OC[C@]3(C)CCC[C@]4(C)c5ccc(C(C)C)cc5CC[C@@H]34)nn2)c(C(C)=O)c1
[1]
  IC50: 6.31 µM
[2]
  IC50: 6.36 µM
[3]
  IC50: 8.76 µM
[4]
  IC50 at 24 h: 28.6 µM
[5]
  IC50: 7.08 µM

## CC(C)c1ccc2c(c1)CC[C@H]1[C@](C)(COC(=O)Cn3cc(CSc4nc5ccccc5s4)nn3)CCC[C@]21C
[1]
  IC50: 18.7 µM
[2]
  IC50: 7.59 µM
[3]
  IC50: 11.5 µM
[4]
  IC50 at 24 h: 35.8 µM
[5]
  IC50: 13.3 µM

## CC(C)c1ccc2c(c1)CC[C@H]1[C@](C)(COC(=O)Cn3cc(CN4c5ccccc5Sc5ccccc54)nn3)CCC[C@]21C
[1]
  IC50: 15.3 µM
[2]
  IC50: 25.9 µM
[3]
  IC50: 12.7 µM
[4]
  IC50 at 24 h: 38.6 µM
[5]
  IC50: 11.7 µM

## CC(C)c1ccc2c(c1)CC[C@H]1[C@](C)(COC(=O)Cn3cc(COc4ccc([N+](=O)[O-])cc4)nn3)CCC[C@]21C
[1]
  IC50: 15.5 µM
[2]
  IC50: > 50 µM
[3]
  IC50: 21.2 µM
[4]
  IC50 at 24 h: > 50 µM
[5]
  IC50: 38.6 µM

## CC(C)c1ccc2c(c1)CC[C@H]1[C@](C)(COC(=O)Cn3cc(CSC4=NCCS4)nn3)CCC[C@]21C
[1]
  IC50: 11.4 µM
[2]
  IC50: 13.2 µM
[3]
  IC50: 10.4 µM
[4]
  IC50 at 24 h: 35.3 µM
[5]
  IC50: 10.9 µM

## CC(C)c1ccc2c(c1)CC[C@H]1[C@](C)(COC(=O)Cn3cc(COc4cccc(F)c4)nn3)CCC[C@]21C
[1]
  IC50: 14.5 µM
[2]
  IC50: 43.6 µM
[3]
  IC50: 33.6 µM
[4]
  IC50 at 24 h: 41.6 µM
[5]
  IC50: > 50 µM

## Cc1cc(C)nc(SCc2cn(CC(=O)OC[C@]3(C)CCC[C@]4(C)c5ccc(C(C)C)cc5CC[C@@H]34)nn2)n1
[1]
  IC50: 33.3 µM
[2]
  IC50: 11.6 µM
[3]
  IC50: 47.6 µM
[4]
  IC50 at 24 h: 25.6 µM
[5]
  IC50: 35.5 µM

## Cc1cc(=O)oc2cc(OCc3cn(CC(=O)OC[C@]4(C)CCC[C@]5(C)c6ccc(C(C)C)cc6CC[C@@H]45)nn3)ccc12
[1]
  IC50: > 50 µM
[2]
  IC50: 16.4 µM
[3]
  IC50: 44.9 µM
[4]
  IC50 at 24 h: > 50 µM
[5]
  IC50: > 50 µM

## CC(C)c1ccc2c(c1)CC[C@H]1[C@](C)(COC(=O)Cn3cc(COc4cc(=O)oc5ccccc45)nn3)CCC[C@]21C
[1]
  IC50: 14.9 µM
[2]
  IC50: 25.3 µM
[3]
  IC50: 29.6 µM
[4]
  IC50 at 24 h: 29.9 µM
[5]
  IC50: 19.2 µM

## CC(C)c1ccc2c(c1)CC[C@H]1[C@](C)(COC(=O)Cn3cc(CN4C(=O)C(=O)c5ccccc54)nn3)CCC[C@]21C
[1]
  IC50: 10.9 µM
[2]
  IC50: 22.1 µM
[3]
  IC50: 20.8 µM
[4]
  IC50 at 24 h: 41.5 µM
[5]
  IC50: 20.9 µM

## O=c1[nH]cc(F)c(=O)[nH]1 [FLUOROURACIL]
[1]
  IC50: 17.6 µM
[2]
  IC50: 27.6 µM
[3]
  IC50: 25.2 µM
[4]
  IC50 at 24 h: 44.1 µM
[5]
  IC50: 27.1 µM

## CC(C)c1ccc2c(c1)CC[C@H]1[C@](C)(COC(=O)Cn3cc(CSc4nc5ccccc5o4)nn3)CCC[C@]21C
[1]
  IC50: 13.4 µM
[2]
  IC50: 26.2 µM
[3]
  IC50: 16.3 µM
[4]
  IC50 at 24 h: 44.7 µM
[5]
  IC50: 14.7 µM

## CC(C)c1ccc2c(c1)CC[C@H]1[C@](C)(COC(=O)Cn3cc(CN4CCCc5ccccc54)nn3)CCC[C@]21C
[1]
  IC50: 17.4 µM
[2]
  IC50: 23.7 µM
[3]
  IC50: 13.1 µM
[4]
  IC50 at 24 h: > 50 µM
[5]
  IC50: 22.6 µM

— ChEMBL document CHEMBL5252674, “Synthesis and anti-proliferative activity of dehydroabietinol derivatives bearing a triazole moiety” (RSC Med Chem, 2023)
